Reference: patent publication USRE44613E1, “N-substituted glycine derivatives: hydroxylase inhibitors” (GlaxoSmithKline LLC, priority 2007, dated 2013)

System: Epo protein produced by Hep3B cell line
Experiment: Epo protein produced by Hep3B cell line using ELISA method
Format: cell-based
Conditions: Homo sapiens; Hep3B cells, 48 hours incubation, DMEM without serum; maximum concentration tested 100 micromolar; range stated jointly for ELISA and AlphaLISA
Protocol: Measure Epo Protein Produced by Hep3B Cell Line Using ELISA Method.
Hep3B cells obtained from the American Type Culture Collection (ATCC) are seeded at 2×10^4 cells/well in Dulbecco's Modified Eagle Medium (DMEM)+10% FBS in 96-well plates. Cells are incubated at 37 deg C./5% CO2/90% humidity (standard cell culture incubation conditions). After overnight adherence, medium is removed and replaced with DMEM without serum containing test compound or DMSO negative control. Following 48 hours incubation, cell culture medium is collected and assayed by ELISA to quantitate Epo protein.

- EC50: > 100 µM
SMILES: CC(C)(C)c1ccc(Cn2nc(-c3ccc(C(C)(C)C)cc3)c(O)c(C(=O)NCC(=O)O)c2=O)cc1 [Example 26, N-[(6-[4-(1,1-Dimethylethyl)phenyl]-2-{[4-(1,1-dimethylethyl)phenyl]methyl}-5-hydroxy-3-oxo-2,3-dihydro-4-pyridazinyl)carbonyl]glycine]
